*1 amine or outer side, *2 acyl side, *3 side chain or, on linkers, in order; H or OH if unused. Where a SMILES comes first, the peptide text is derived from it. Side-chain parts run from the residue outwards. [ ]: non-standard residue; d: D form. The star is where a group is joined. Ethylenediamine = C(CN[*:2])N[*:1]; Hyp = O=C(O)[CH]1C[CH](O)CN1; Phg = N[CH](C(=O)O)c1ccccc1; CO = O=C([*:1])[*:2]; Bn = c1ccc(C*)cc1
Assays:
[1] = tested on: Pancreas; assay: Microarray gene expression profiling (HG-U95A), pancreas; assay type: in vivo, cynomolgus monkeys
Procedure: (§1) Origin of tissue and processing. Male and female cynomolgus monkeys received subcutaneously pasireotide (100 μg/animal/day) or the vehicle for 14 days. On day 15, all animals were sacrificed and tissues for RNA extraction were immediately snap-frozen and kept at −80° C. until processing.
(§2) RNA expression profiling was conducted by means of the HG-U95A gene expression probe array (Affymetrix; Santa Clara, Calif. USA), containing more than 12,600 probe sets interrogating primarily full-length human genes and also some control probe sets. The experiment was conducted according to the recommendations of the manufacturer. Briefly, total RNA was obtained by acid guanidinium thiocyanate-phenol-chloroform extraction (Trizol®, Invitrogen Life Technologies, San Diego, Calif. USA) from each frozen tissue section. The total RNA was then purified on an affinity resin (Rneasy®, Qiagen) and quantified. Double stranded cDNA was synthesized with a starting amount of approximately 5 μg full-length total RNA using the Superscript® Choice System (Invitrogen Life Technologies, Carlsbad, Calif. USA) in the presence of a T7-(dT)24 DNA oligonucleotide primer. Following synthesis, the cDNA was purified by phenol/chloroform/isoamyl alcohol extraction and ethanol precipitation. The purified cDNA was then transcribed in vitro using the BioArray® High Yield RNA Transcript Labeling Kit (ENZO, Farmingdale, N.Y. USA) in the presence of biotinylated ribonucleotides form biotin labelled cRNA. The labelled cRNA was then purified on an affinity resin (Rneasy®, Qiagen), quantified and fragmented. An amount of approximately 10 μg labelled cRNA was hybridized for 16 hours at 45° C. to an expression probe array. The array was then washed and stained twice with streptavidin-phycoerythrin (Molecular Probes,) using the GeneChip® Fluidics Workstation 400 (Affymetrix, Santa Clara, Calif. USA). The array was then scanned twice using a confocal laser scanner (GeneArray® Scanner, Agilent, Palo Alto, Calif. USA) resulting in one scanned image. This resulting “.dat-file” was processed using the MAS4 program (Affymetrix) into a “.cel-file”. The “.cel file” was captured and loaded into the Affymetrix GeneChip® Laboratory Information Management System (LIMS). The LIMS database is connected to a UNIX Sun Solaris server through a network filing system that allows for the average intensities for all probes cells (CEL file) to be downloaded into an Oracle database (NPGN). Raw data was converted to expression levels using a “target intensity” of 150. The data were evaluated for quality control and loaded in the GeneSpring® software 4.2.4 (Silicon Genetics, Calif. USA) for analysis.
(§3) On the human Affymetrix HGU95Av2 chip, probe sets for individual genes contain 20 oligonucleotide pairs, each composed of a “perfect match” 25-mer and a “mismatch” 25-mer differing from the “perfect” match oligonucleotide at a single base. After probe labelling, hybridization, and laser scanning, the expression level was estimated by averaging the differences in signal intensity measured by oligonucleotide pairs of a given probe (AvgDiff value). The fold changes and directions were calculated for selected genes, from the differences of the AvgDiff values between controls and treated.
(§4) To identify genes that were impacted by pasireotide, the dataset was initially filtered to exclude in a first wave of analysis, genes whose values were systematically in the lower expression ranges where the experimental noise is high (at least 80 in a number of experiments corresponding to the smallest number of replicas of any experimental point). In a second round of selection a threshold p-value of 0.05 (based on a t-test) identified differences between treated and control based on a two component error model (Global Error Model) and, whenever possible, with a stepdown correction for multi-hypothesis testing (Benjamini and Hochberg false discovery rate). […]

[2] = tested on: Kidney; assay: Microarray gene expression profiling (HG-U95A), kidney; assay type: in vivo, cynomolgus monkeys
Procedure: as §1, §2, §3, §4

[3] = ↑ vs control, 100 μg/animal/day s.c., 14 days
[4] = ↓ vs control, 100 μg/animal/day s.c., 14 days
[5] = ↑ increase, treated vs controls
[6] = ↓ decrease, treated vs controls

With `NCCCCC1NC(=O)C(Cc2c[nH]c3ccccc23)NC(=O)C(c2ccccc2)NC(=O)C2CC(OC(=O)NCCN)CN2C(=O)C(Cc2ccccc2)NC(=O)C(Cc2ccc(OCc3ccccc3)cc2)NC1=O` (stereo not drawn) [Pasireotide, cyclo[4-(NH2—C2H4—NH—CO—O)Pro-Phg-DTrp-Lys-Tyr(4-Bzl)-Phe]] (cyclo(F[Hyp]([CO-Ethylenediamine])[Phg]WKY(Bn)); configuration not given here) the “IGF-1 expression level, AvgDiff (range)” value ([1]; 0.1 mg/animal/14day) was 89 (20 to 298), the “SSTR2 expression level, AvgDiff (range)” value ([1]; 0.1 mg/animal/14day) was 156 (120 to 210) and the “Cdki 1C transcript fold change” value [1, 3] was “Cdki 1C ↑ x2”. The “Chymotrypsin-like transcript fold change” value [1, 3] was “↑ x3.5”, the “Cyclin D1 transcript fold change” value [1, 3] was “Cyclin D1 ↑ x2” and the “GLUR precursor, flip isoform transcript fold change” value [1, 3] was “flip isoform ↑ x3”. The “IFN regulatory factor 3 transcript fold change” value [1, 3] was “factor 3 ↑ x5”, the “IGF-1 transcript fold change” value [1, 3] was “IGF-1 ↑ x4.5” and the “IP-1-phosphatase transcript fold change” value [1, 3] was “↑ x2.5”. The “Integrin α 2b precursor transcript fold change” value [1, 3] was “precursor ↑ x1.5”, the “Na+ channel, voltage-gated, type 1, β polypeptide transcript fold change” value [1, 3] was “↑ x2” and the “PDGFR α transcript fold change” value [1, 3] was “PDGFR α ↑ x2.5”. For the same molecule, the “PDGFR, α polypeptide transcript fold change” value [1, 3] was “↑ x1.5”, the “PI-4-kinase, catalytic, α polypeptide transcript fold change” value [1, 3] was “α polypeptide ↑ x1.5” and the “PL A2, group IVC (cytosolic, calcium-independent) transcript fold change” value [1, 3] was “independent) ↑ x1.5”. For the same molecule, the “Prostacyclin synthase transcript fold change” value [1, 3] was “synthase ↑ x2”, the “THR interactor 10 transcript fold change” value [1, 3] was “↑ x2.5” and the “Thrombospondin 2 transcript fold change” value [1, 3] was “↑ x3.5”. The “BCL2/adenovirus E1B 19 kD-intracting protein 1, isoform BNIP1-a transcript fold change” value [1, 4] was “BNIP1-a ↓ x1.5”, the “CRHR 1 transcript fold change” value [1, 4] was “CRHR 1 ↓ x2” and the “Ca++ channel, voltage dependent, α 1F subunit transcript fold change” value [1, 4] was “↓ x4.5”. The “Cyclin T2 transcript fold change” value [1, 4] was “Cyclin T2 ↓ x2”, the “G-CSF protein transcript fold change” value [1, 4] was “↓ x2” and the “Gastrin-releasing peptide receptor transcript fold change” value [1, 4] was “↓ x5”. For the same molecule, the “IL 1 receptor antagonist transcript fold change” value [1, 4] was “antagonist↓ x2”, the “K+ voltage-gated channel, KQT-like subfamily, member3 transcript fold change” value [1, 4] was “↓ x2.5” and the “Neuro-blastoma apoptosis-related RNA binding protein transcript fold change” value [1, 4] was “protein ↓ x3”. The “Phosphotyrosine independent ligand p62B for the Lck SH2 domain B-cell isoform transcript fold change” value [1, 4] was “isoform ↓ x2”, the “Smad 3 transcript fold change” value [1, 4] was “Smad 3 ↓ x1.5” and the “THR binding protein transcript fold change” value [1, 4] was “protein ↓ x2”. The “IGF-1 expression level, AvgDiff (range)” value ([2]; 0.1 mg/animal/14day) was 25 (20 to 39), the “IGFBP2 expression level, AvgDiff (range)” value ([2]; 0.1 mg/animal/14day) was 563 (457 to 655) and the “IR expression level, AvgDiff (range)” value ([2]; 0.1 mg/animal/14day) was 196 (163 to 265). For the same molecule, the “SSTR2 expression level, AvgDiff (range)” value ([2]; 0.1 mg/animal/14day) was 126 (93 to 158), the “SSTR3 expression level, AvgDiff (range)” value ([2]; 0.1 mg/animal/14day) was 82 (33 to 120) and the “Adrenomedullin RNA expression fold change” value [2, 5] was “↑ x1.5”. For the same molecule, the “Arginine vasopressin (neurophysin II, antidiuretic hormone, diabetes insipidus, neurohypophyseal) RNA expression fold change” value [2, 5] was “↑ x2”, the “CDC37 (cell division cycle 37, S. cerevisiae, homolog) RNA expression fold change” value [2, 5] was “homolog) ↑ x1.5” and the “CSF-1 receptor, formerly McDonough feline sarcoma viral (v-fms) oncogene homolog RNA expression fold change” value [2, 5] was “homolog ↑ x2.5”. The “Ca++ channel, voltage-dependent, α 1H subunit RNA expression fold change” value [2, 5] was “subunit ↑ x2”, the “Calcium/calmodulin-dependent protein kinase kinase 2, β RNA expression fold change” value [2, 5] was “↑ x1.5” and the “Cdk 5, regulatory subunit 2 (p39) RNA expression fold change” value [2, 5] was “↑ x1.5”. For the same molecule, the “Cdki 1A (p21, Cip 1) RNA expression fold change” value [2, 5] was “Cip 1) ↑ x5”, the “Corticotropin releasing hormone receptor type 2 beta isoform RNA expression fold change” value [2, 5] was “↑ x1.5” and the “Dopamine receptor D2 RNA expression fold change” value [2, 5] was “↑ x4.5”. For the same molecule, the “Fas/Apo-1/CD95 RNA expression fold change” value [2, 5] was “↑ x1.5”, the “GABA (A) receptor, γ2 precursor RNA expression fold change” value [2, 5] was “precursor ↑ x2” and the “GFR-bound protein 7 RNA expression fold change” value [2, 5] was “protein 7 ↑ x2”. The “GFR-bound protein 14 RNA expression fold change” value [2, 5] was “protein 14 ↑ x2”, the “Growth arrest-specific 6 RNA expression fold change” value [2, 5] was “specific 6 ↑ x1.5” and the “IGFBP2 RNA expression fold change” value [2, 5] was “IGFBP2 ↑ x1.5”. For the same molecule, the “IL-7 R precursor RNA expression fold change” value [2, 5] was “↑ x2”, the “IRF5 RNA expression fold change” value [2, 5] was “IRF5 ↑ x2” and the “K+ voltage-gated channel, Shaw-related subfamily, member 3 RNA expression fold change” value [2, 5] was “member 3 ↑ x2.5”. The “LIF (cholinergic differentiation factor) RNA expression fold change” value [2, 5] was “factor) ↑ x2”, the “Natriuretic peptide receptor A/guanylate cyclase A (atrionatriuretic peptide receptor A) RNA expression fold change” value [2, 5] was “A) ↑ x2” and the “Opioid receptor, δ1 RNA expression fold change” value [2, 5] was “δ1 ↑ x2.5”. For the same molecule, the “PDGFR, α polypeptide RNA expression fold change” value [2, 5] was “polypeptide ↑ x1.5”, the “Putative chemokine receptor; GTP-binding protein RNA expression fold change” value [2, 5] was “↑ x2” and the “SSTR2 RNA expression fold change” value [2, 5] was “SSTR 2↑ x2”. For the same molecule, the “SSTR 3 RNA expression fold change” value [2, 5] was “SSTR 3↑ x3”, the “Solute carrier family 9 (Na+/H+ exchanger) isoform 3 regulatory factor 1 RNA expression fold change” value [2, 5] was “↑ x2” and the “TGF, β1 RNA expression fold change” value [2, 5] was “TGF, β 1 ↑ x1.5”. For the same molecule, the “THR binding protein RNA expression fold change” value [2, 5] was “protein ↑x1.5”, the “THR, α (avian erythroblastic leukaemia viral (v-erb-a) oncogene homolog) RNA expression fold change” value [2, 5] was “homolog) ↑x1.5” and the “TNFR superfamily, member 12 RNA expression fold change” value [2, 5] was “↑ x2”. The “VWF precursor RNA expression fold change” value [2, 5] was “precursor ↑ x2”, the “δ sleep inducing peptide, immunoreactor RNA expression fold change” value [2, 5] was “x2.5” and the “Acetylserotonin O-methyl transferase-like RNA expression fold change” value [2, 6] was “↓ x3”. The “Angiotensin receptor 1B RNA expression fold change” value [2, 6] was 1B ↓ x1.5, the “Calmodulin 3 (phosphorrylase kinase, δ) RNA expression fold change” value [2, 6] was “↓ x1.5” and the “Cdk (CDC2-like) RNA expression fold change” value [2, 6] was “↓ x2”. For the same molecule, the “Death effecter domain-containing RNA expression fold change” value [2, 6] was “↓ x3.5”, the “Glucocorticoid receptor DNA binding factor 1 RNA expression fold change” value [2, 6] was “↓ x4.5” and the “Glutamate receptor, metabotropic 2 precursor RNA expression fold change” value [2, 6] was “precursor ↓ x3”. For the same molecule, the “IGF-1 RNA expression fold change” value [2, 6] was “IGF-1 ↓ x2.5”, the “IGF-2 RNA expression fold change” value [2, 6] was “IGF-2 ↓ x2” and the “Insulin receptor RNA expression fold change” value [2, 6] was “↓ x3”. For the same molecule, the “Na+ channel, nonvoltage-gated 1, β (Liddle syndrome) RNA expression fold change” value [2, 6] was “syndrome) ↓ x2”, the “PG-endoperoxide synthase 1 (prostaglandin G/H synthase and cyclooxygenase) RNA expression fold change” value [2, 6] was “↓ x3.5” and the “PI-3-kinase, catalytic, α polypeptide RNA expression fold change” value [2, 6] was “polypeptide ↓ x3”. For the same molecule, the “PP 3 (formerly 2B), catalytic subunit, β isoform (calcineurin A β) RNA expression fold change” value [2, 6] was “A β) ↓ x2”, the “Solute carrier family 6 (neurotransmitter transporter, creatin), member 8 RNA expression fold change” value [2, 6] was “↓ x3” and the “THR-associated protein, 240kδ subunit RNA expression fold change” value [2, 6] was “subunit ↓ x1.5”. The “TNF, α-induced protein 3 RNA expression fold change” value [2, 6] was “↓ x1.5” and the “Vasopressin-activated calcium-mobilizing receptor-1 RNA expression fold change” value [2, 6] was “receptor-1 ↓ x2”.
